# Test results taken from patent publication US20230286958A1, “PLASMA KALLIKREIN INHIBITORS” (Merck Sharp & Dohme LLC, priority 2020, published 2023).
# How the values were obtained:
# Human plasma kallikrein = Human plasma kallikrein (Homo sapiens (Human), UniProt P03952); test: Kallikrein Assay (fluorogenic substrate Acetyl-K-P-R-AFC); type: biochemical; conditions: Plasma Kallikrein (PKal)
# Outline: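 Ki is derived from IC50 with the Cheng-Prusoff equation, and IC50 from the inflection point of a four-parameter logistic curve. The rate of AFC release is read with 0.5 nM purified enzyme and […] substrate at room temperature or 37 °C.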
# human Factor XIa = human Factor XIa (Homo sapiens (Human), UniProt P03951); test: Factor XIa Assay (fluorogenic substrate GPR-AFC); type: biochemical; conditions: Factor XIa (FXIa)
# human Factor XIa, sequence (P03951 388-625 limits assumed): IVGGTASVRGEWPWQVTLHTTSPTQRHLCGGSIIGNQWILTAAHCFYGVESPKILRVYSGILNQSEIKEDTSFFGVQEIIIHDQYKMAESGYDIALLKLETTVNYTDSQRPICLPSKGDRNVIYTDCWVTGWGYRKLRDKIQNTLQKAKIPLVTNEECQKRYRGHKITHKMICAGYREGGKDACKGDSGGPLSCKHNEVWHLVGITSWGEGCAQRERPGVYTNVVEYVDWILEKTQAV
# human Factor XIa, sequence (P03951 19-387 partner limits assumed): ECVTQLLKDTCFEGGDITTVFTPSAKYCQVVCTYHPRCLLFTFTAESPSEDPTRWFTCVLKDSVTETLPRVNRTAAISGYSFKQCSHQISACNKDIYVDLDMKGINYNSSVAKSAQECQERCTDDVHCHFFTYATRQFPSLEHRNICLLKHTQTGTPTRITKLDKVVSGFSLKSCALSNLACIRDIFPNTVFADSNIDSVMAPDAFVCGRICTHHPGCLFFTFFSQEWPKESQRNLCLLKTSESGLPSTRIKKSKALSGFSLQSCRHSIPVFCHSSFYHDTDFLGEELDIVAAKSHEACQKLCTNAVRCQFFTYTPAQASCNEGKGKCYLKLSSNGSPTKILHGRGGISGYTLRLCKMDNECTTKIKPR
# Human plasma kallikrein, sequence (P03952 391-638): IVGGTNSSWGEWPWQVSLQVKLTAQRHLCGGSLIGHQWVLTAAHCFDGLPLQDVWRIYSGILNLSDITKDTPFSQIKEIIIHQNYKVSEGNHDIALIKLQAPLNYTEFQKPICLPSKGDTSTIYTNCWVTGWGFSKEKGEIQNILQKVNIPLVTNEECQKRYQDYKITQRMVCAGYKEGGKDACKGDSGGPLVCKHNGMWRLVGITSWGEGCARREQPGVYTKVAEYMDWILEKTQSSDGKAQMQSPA
# Human plasma kallikrein, sequence (P03952 20-390 partner): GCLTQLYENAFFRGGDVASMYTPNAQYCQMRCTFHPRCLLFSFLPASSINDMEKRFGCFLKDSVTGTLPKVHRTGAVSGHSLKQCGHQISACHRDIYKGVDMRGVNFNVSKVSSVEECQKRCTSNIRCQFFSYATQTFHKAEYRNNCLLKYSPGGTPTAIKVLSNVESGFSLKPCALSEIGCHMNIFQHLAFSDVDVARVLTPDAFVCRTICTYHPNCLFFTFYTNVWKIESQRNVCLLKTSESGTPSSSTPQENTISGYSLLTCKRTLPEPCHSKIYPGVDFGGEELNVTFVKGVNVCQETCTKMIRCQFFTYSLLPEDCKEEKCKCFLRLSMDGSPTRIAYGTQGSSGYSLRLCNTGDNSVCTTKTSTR
Structure (SMILES),IC50 (Human plasma kallikrein) [nM],IC50 (human Factor XIa) [nM]
C[C@@H](c1cnc(N2C[C@H]3C[C@H]3C2=O)nc1)n1cc(NC(=O)c2nc(-c3c(C(F)F)ccc(Cl)c3F)cnc2CC(C)(C)O)cn1 [Example 180],7.7,4950
"C[C@@H](c1cnc(N2C[C@H]3C[C@H]3C2=O)nc1)n1cc(NC(=O)c2nc(-c3c(C(F)F)ccc(Cl)c3F)cnc2C(C)(C)O)cn1 [Example 181, 6-(3-Chloro-6-(difluoromethyl)-2-fluorophenyl)-3-(2-hydroxypropan-2-yl)-N-(1-((S)-1-(2-((1R,5S)-2-oxo-3-azabicyclo[3.1.0]hexan-3-yl)pyrimidin-5-yl)ethyl)-1H-pyrazol-4-yl)pyrazine-2-carboxamide]",37.1,> 10000
"Cc1nc(N2C[C@H]3C[C@H]3C2=O)ncc1Cn1cc(NC(=O)c2nc(-c3c(C(F)F)ccc(Cl)c3F)cnc2C)nn1 [Example 183, 6-(3-Chloro-6-(difluoromethyl)-2-fluorophenyl)-3-methyl-N-(1-((4-methyl-2-((1R,5S)-2-oxo-3-azabicyclo[3.1.0]hexan-3-yl)pyrimidin-5-yl)methyl)-1H-1,2,3-triazol-4-yl)pyrazine-2-carboxamide]",30.6,> 10000
"Cc1nc(N2C[C@H]3C[C@H]3C2=O)ncc1Cn1ncc(NC(=O)c2nc(-c3c(C(F)F)ccc(Cl)c3F)cnc2C)n1 [Example 184, 6-(3-Chloro-6-(difluoromethyl)-2-fluorophenyl)-3-methyl-N-(2-((4-methyl-2-((1R,5S)-2-oxo-3-azabicyclo[3.1.0]hexan-3-yl)pyrimidin-5-yl)methyl)-2H-1,2,3-triazol-4-yl)pyrazine-2-carboxamide]",8.1,7730
"Cc1cc(Cn2ncc(NC(=O)c3nc(-c4c(C(F)F)ccc(Cl)c4F)cnc3C)n2)cnc1N1C[C@H]2C[C@H]2C1=O [Example 187, 6-(3-Chloro-6-(difluoromethyl)-2-fluorophenyl)-3-methyl-N-(2-((5-methyl-6-((1R,5S)-2-oxo-3-azabicyclo[3.1.0]hexan-3-yl)pyridin-3-yl)methyl)-2H-1,2,3-triazol-4-yl)pyrazine-2-carboxamide]",4.3,5670
"Cc1nc(N2C[C@H]3C[C@H]3C2=O)ncc1C1(n2cc(NC(=O)c3nc(-c4c(C(F)F)ccc(Cl)c4F)cnc3C)cn2)CCC1 [Example 188, 6-(3-Chloro-6-(difluoromethyl)-2-fluorophenyl)-3-methyl-N-(1-(1-(4-methyl-2-((1R,5S)-2-oxo-3-azabicyclo[3.1.0]hexan-3-yl)pyrimidin-5-yl)cyclobutyl)-1H-pyrazol-4-yl)pyrazine-2-carboxamide]",6.5,3110
"C[C@@H](c1cnc(N2C[C@H]3C[C@H]3C2=O)nc1)n1cc(NC(=O)c2nc(-c3c(C(F)F)ccc(Cl)c3F)cnc2COC(C)(C)C)cn1 [Example 192, 3-(tert-Butoxymethyl)-6-(3-chloro-6-(difluoromethyl)-2-fluorophenyl)-N-(1-((S)-1-(2-((1R,5S)-2-oxo-3-azabicyclo[3.1.0]hexan-3-yl)pyrimidin-5-yl)ethyl)-1H-pyrazol-4-yl)pyrazine-2-carboxamide]",4.4,6830
"Cc1nc(N2CCN(C)C2=O)ncc1[C@H](C)n1cc(NC(=O)c2nc(-c3c(C(F)F)ccc(Cl)c3F)cnc2C)cn1 [Example 207, (S)-6-(3-Chloro-6-(difluoromethyl)-2-fluorophenyl)-3-methyl-N-(1-(1-(4-methyl-2-(3-methyl-2-oxoimidazolidin-1-yl)pyrimidin-5-yl)ethyl)-1H-pyrazol-4-yl)pyrazine-2-carboxamide]",8.6,3280
"Cc1ncc(-c2c(C(F)F)ccc(Cl)c2F)nc1C(=O)Nc1cnn(Cc2ncc(N3C[C@H]4C[C@H]4C3=O)c(C)c2F)c1 [Example 215, 6-(3-Chloro-6-(difluoromethyl)-2-fluorophenyl)-N-(1-((3-fluoro-4-methyl-5-((1R,5S)-2-oxo-3-azabicyclo[3.1.0]hexan-3-yl)pyridin-2-yl)methyl)-1H-pyrazol-4-yl)-3-methylpyrazine-2-carboxamide]",7.8,> 10000
"Cc1ncc(-c2c(C(F)F)ccc(Cl)c2F)nc1C(=O)Nc1cnn([C@@H](C)c2cnc(N3C[C@H]4C[C@H]4C3=O)c(O)c2)c1 [Example 217, 6-(3-Chloro-6-(difluoromethyl)-2-fluorophenyl)-N-(1-((S)-1-(5-hydroxy-6-((1R,5S)-2-oxo-3-azabicyclo[3.1.0]hexan-3-yl)pyridin-3-yl)ethyl)-1H-pyrazol-4-yl)-3-methylpyrazine-2-carboxamide]",14.9,4150
"Cc1ncc(-c2c(C(F)F)ccc(Cl)c2F)nc1C(=O)Nc1cnn(C2(c3cnc(N4C[C@H]5C[C@H]5C4=O)c(C)n3)CC2)c1 [Example 220, 6-(3-Chloro-6-(difluoromethyl)-2-fluorophenyl)-3-methyl-N-(1-(1-(6-methyl-5-((1R,5S)-2-oxo-3-azabicyclo[3.1.0]hexan-3-yl)pyrazin-2-yl)cyclopropyl)-1H-pyrazol-4-yl)pyrazine-2-carboxamide]",7.8,> 10000
"COCc1ncc(-c2c(C(F)F)ccc(Cl)c2F)nc1C(=O)Nc1cnn(C2(c3cnc(N4C[C@H]5C[C@H]5C4=O)c(C)n3)CC2)c1 [Example 221, 6-(3-Chloro-6-(difluoromethyl)-2-fluorophenyl)-3-(methoxymethyl)-N-(1-(1-(6-methyl-5-((1R,5S)-2-oxo-3-azabicyclo[3.1.0]hexan-3-yl)pyrazin-2-yl)cyclopropyl)-1H-pyrazol-4-yl)pyrazine-2-carboxamide]",14.9,> 10000
"Cc1nc(C2(n3cc(NC(=O)c4nc(-c5c(C(F)F)ccc(Cl)c5F)cnc4COC(C)(C)C)cn3)CC2)cnc1N1C[C@H]2C[C@H]2C1=O [Example 222, 3-(tert-Butoxymethyl)-6-(3-chloro-6-(difluoromethyl)-2-fluorophenyl)-N-(1-(1-(6-methyl-5-((1R,5S)-2-oxo-3-azabicyclo[3.1.0]hexan-3-yl)pyrazin-2-yl)cyclopropyl)-1H-pyrazol-4-yl)pyrazine-2-carboxamide]",16.7,> 10000

# Stronger by IC50 (Human plasma kallikrein), values ahead:
IC50 (Human plasma kallikrein) [nM],IC50 (human Factor XIa) [nM],Structure (SMILES)
0.7,572,"[2H]C([2H])(O)c1ncc(-c2c(C(F)F)ccc(Cl)c2F)nc1C(=O)Nc1cnn([C@@H](C)c2cnc(N3C[C@H]4C[C@H]4C3=O)nc2)c1 [Example 182, 6-(3-Chloro-6-(difluoromethyl)-2-fluorophenyl)-3-(hydroxymethyl-d2)-N-(1-((S)-1-(2-((1R,5S)-2-oxo-3-azabicyclo[3.1.0]hexan-3-yl)pyrimidin-5-yl)ethyl)-1H-pyrazol-4-yl)pyrazine-2-carboxamide]"
2.4,3180,"Cc1ncc(-c2c(C(F)F)ccc(Cl)c2F)nc1C(=O)Nc1cn(Cc2cnc(N3C[C@H]4C[C@H]4C3=O)c(C)n2)nn1 [Example 185, 6-(3-Chloro-6-(difluoromethyl)-2-fluorophenyl)-3-methyl-N-(1-((6-methyl-5-((1R,5S)-2-oxo-3-azabicyclo[3.1.0]hexan-3-yl)pyrazin-2-yl)methyl)-1H-1,2,3-triazol-4-yl)pyrazine-2-carboxamide]"
1.4,1380,"Cc1ncc(-c2c(C(F)F)ccc(Cl)c2F)nc1C(=O)Nc1cnn(Cc2cnc(N3C[C@H]4C[C@H]4C3=O)c(C)n2)n1 [Example 186, 6-(3-Chloro-6-(difluoromethyl)-2-fluorophenyl)-3-methyl-N-(2-((6-methyl-5-((1R,5S)-2-oxo-3-azabicyclo[3.1.0]hexan-3-yl)pyrazin-2-yl)methyl)-2H-1,2,3-triazol-4-yl)pyrazine-2-carboxamide]"
1.3,667,Cc1ncc(-c2c(C(F)F)ccc(Cl)c2F)nc1C(=O)Nc1cnn([C@@H](C)c2cnc(N3C[C@H]4C[C@H]4C3=O)c(N)c2)c1 [Example 189]
0.7,1040,Cc1ncc(-c2c(C(F)F)ccc(Cl)c2F)nc1C(=O)Nc1cnn([C@H](C)c2cnc(N3C[C@H]4C[C@H]4C3=O)c(N)c2)c1 [Example 190]
1.1,111,"Cc1ncc(-c2c(C(F)F)ccc(Cl)c2F)nc1C(=O)Nc1cnn(Cc2cnc(N3C[C@H]4C[C@H]4C3=O)c(N)c2)c1 [Example 191, N-(1-((5-Amino-6-((1R,5S)-2-oxo-3-azabicyclo[3.1.0]hexan-3-yl)pyridin-3-yl)methyl)-1H-pyrazol-4-yl)-6-(3-chloro-6-(difluoromethyl)-2-fluorophenyl)-3-methylpyrazine-2-carboxamide]"
0.4,441,C[C@@H](c1cnc(N2C[C@H]3C[C@H]3C2=O)nc1)n1cc(NC(=O)c2nc(-c3c(C(F)F)ccc(Cl)c3F)cnc2CO)cn1 [Example 193]
2.8,8420,"Cc1ncc(-c2c(C(F)F)ccc(Cl)c2F)nc1C(=O)Nc1cnn([C@H](C)c2cnc(N3C[C@H]4C[C@H]4C3=O)c(O)c2)c1 [Example 216, 6-(3-Chloro-6-(difluoromethyl)-2-fluorophenyl)-N-(1-((R)-1-(5-hydroxy-6-((1R,5S)-2-oxo-3-azabicyclo[3.1.0]hexan-3-yl)pyridin-3-yl)ethyl)-1H-pyrazol-4-yl)-3-methylpyrazine-2-carboxamide]"
1,1840,"Cc1nc(C2(n3cc(NC(=O)c4nc(-c5c(C(F)F)ccc(Cl)c5F)cnc4CO)cn3)CC2)cnc1N1C[C@H]2C[C@H]2C1=O [Example 223, 6-(3-Chloro-6-(difluoromethyl)-2-fluorophenyl)-3-(hydroxymethyl)-N-(1-(1-(6-methyl-5-((1R,5S)-2-oxo-3-azabicyclo[3.1.0]hexan-3-yl)pyrazin-2-yl)cyclopropyl)-1H-pyrazol-4-yl)pyrazine-2-carboxamide]"
0.4,41,Cc1cc([C@H](C)n2cc(NC(=O)c3nc(-c4c(OC(F)F)ccc(Cl)c4F)cnc3CO)cn2)cnc1N1C[C@H]2C[C@H]2C1=O [Example 226]
